The test concerns MV-4-11 cells. Nature of the test: Gene expression microarray analysis (Affymetrix PrimeView) and GSEA. It counts as cell-based, human. Further details: RFU PODN (11730768_x_at) / Fold change /veh PODN (11730768_x_at) / RFU LINC00158 (11744669_a_at) / Fold change /veh LINC00158 (11744669_a_at) / RFU DUSP10 (11751237_a_at) / Fold change /veh DUSP10 (11751237_a_at) / RFU ID3 (11757404_x_at) / Fold change /veh ID3 (11757404_x_at) / RFU PLEKHG5 (11737974_s_at) / Fold change /veh PLEKHG5 (11737974_s_at) / RFU LRRC4B (11730491_at) / Fold change /veh LRRC4B (11730491_at) / RFU GIMAP4 (11747438_a_at) / Fold change /veh GIMAP4 (11747438_a_at) / RFU KRT8 (11758183_x_at) / Fold change /veh KRT8 (11758183_x_at) / RFU CNN1 (11734310_a_at) / Fold change /veh CNN1 (11734310_a_at) / RFU VPS37D (11726825_at) / Fold change /veh VPS37D (11726825_at) / RFU C10orf10 (11716522_x_at) / Fold change /veh C10orf10 (11716522_x_at) / RFU KIR2DL2 /// KIR2DL4 /// KIR2DL5A /// KIR2DL5B /// KIR2DS1 /// KIR2DS2 /// KIR2DS3 /// KIR2DS4 /// KIR3DL3 /// KIR3DL3 /// KIR3DS1 (11738374_at) / Fold change /veh KIR2DL2 /// KIR2DL4 /// KIR2DL5A /// KIR2DL5B /// KIR2DS1 /// KIR2DS2 /// KIR2DS3 /// KIR2DS4 /// KIR3DL3 /// KIR3DL3 /// KIR3DS1 (11738374_at) / RFU C1QL1 (11718748_at) / Fold change /veh C1QL1 (11718748_at) / RFU TMPRSS4 (11747572_a_at) / Fold change /veh TMPRSS4 (11747572_a_at) / RFU HAMP (11756126_x_at) / Fold change /veh HAMP (11756126_x_at) / RFU RNFT2 (11725882_a_at) / Fold change /veh RNFT2 (11725882_a_at) / RFU NR4A2 (11747474_a_at) / Fold change /veh NR4A2 (11747474_a_at) / RFU ABCC12 (11746883_a_at) / Fold change /veh ABCC12 (11746883_a_at) / RFU TMEM136 (11760407_x_at) / Fold change /veh TMEM136 (11760407_x_at) / RFU CLDN22 /// WWC2 (11732394_at) / Fold change /veh CLDN22 /// WWC2 (11732394_at) / RFU HLA-DPB1 (11760878_x_at) / Fold change /veh HLA-DPB1 (11760878_x_at) / RFU SPINT1 (11716480_a_at) / Fold change /veh SPINT1 (11716480_a_at) / RFU GAP43 (11754022_s_at) / Fold change /veh GAP43 (11754022_s_at) / RFU A4GNT (11735810_at) / Fold change /veh A4GNT (11735810_at) / RFU PRB3 (11715151_x_at) / Fold change /veh PRB3 (11715151_x_at) / RFU TUBB4B (11761932_at) / Fold change /veh TUBB4B (11761932_at) / RFU CAPN14 (11732068_a_at) / Fold change /veh CAPN14 (11732068_a_at) / RFU TMCC2 (11721928_a_at) / Fold change /veh TMCC2 (11721928_a_at) / RFU IRGQ (11745062_a_at) / Fold change /veh IRGQ (11745062_a_at) / RFU FAM174B (11720279_a_at) / Fold change /veh FAM174B (11720279_a_at) / RFU TMPRSS4 (11748680_a_at) / Fold change /veh TMPRSS4 (11748680_a_at) / RFU FAM212B (11763350_a_at) / Fold change /veh FAM212B (11763350_a_at) / RFU PLEKHG5 (11743358_a_at) / Fold change /veh PLEKHG5 (11743358_a_at) / RFU ZSCAN30 (11745921_a_at) / Fold change /veh ZSCAN30 (11745921_a_at) / RFU CMKLR1 (11741424_a_at) / Fold change /veh CMKLR1 (11741424_a_at) / RFU LOC101060620 /// MAPK8IP1 (11723275_at) / Fold change /veh LOC101060620 /// MAPK8IP1 (11723275_at) / RFU SPTSSB (11747773_x_at) / Fold change /veh SPTSSB (11747773_x_at) / RFU PRSS12 (11739890_at) / Fold change /veh PRSS12 (11739890_at) / RFU BIN1 (11741810_x_at) / Fold change /veh BIN1 (11741810_x_at) / RFU WNT11 (11732464_a_at) / Fold change /veh WNT11 (11732464_a_at) / RFU C10orf10 (11716521_a_at) / Fold change /veh C10orf10 (11716521_a_at) / RFU C5orf56 (11738089_at) / Fold change /veh C5orf56 (11738089_at) / RFU CYB561 (11721691_x_at) / Fold change /veh CYB561 (11721691_x_at) / RFU ANKRD19P (11752326_a_at) / Fold change /veh ANKRD19P (11752326_a_at) / RFU OR2T12 /// OR2T33 /// OR2T8 (11738714_s_at) / Fold change /veh OR2T12 /// OR2T33 /// OR2T8 (11738714_s_at) / RFU VCAN (11748164_a_at) / Fold change /veh VCAN (11748164_a_at) / RFU JSRP1 (11732532_at) / Fold change /veh JSRP1 (11732532_at) / RFU KRTAP10-11 (11738290_x_at) / Fold change /veh KRTAP10-11 (11738290_x_at) / RFU MYO3A (11730013_a_at) / Fold change /veh MYO3A (11730013_a_at) / RFU EBF3 (11725865_a_at) / Fold change /veh EBF3 (11725865_a_at) / RFU CAMK2N1 (11719241_x_at) / Fold change /veh CAMK2N1 (11719241_x_at) / RFU C5orf56 (11738088_a_at) / Fold change /veh C5orf56 (11738088_a_at) / RFU OLFML3 (11715873_a_at) / Fold change /veh OLFML3 (11715873_a_at) / RFU LOC100653217 /// NTM (11731650_a_at) / Fold change /veh LOC100653217 /// NTM (11731650_a_at) / RFU MAPK11 (11762145_a_at) / Fold change /veh MAPK11 (11762145_a_at) / RFU FIZ1 (11724087_x_at) / Fold change /veh FIZ1 (11724087_x_at) / RFU OASL (11726364_x_at) / Fold change /veh OASL (11726364_x_at) / RFU SOX15 (11748057_x_at) / Fold change /veh SOX15 (11748057_x_at) / RFU CD79A (11719716_a_at) / Fold change /veh CD79A (11719716_a_at) / RFU HIST1H1D (11736915_at) / Fold change /veh HIST1H1D (11736915_at) / RFU CASKIN2 (11723855_a_at) / Fold change /veh CASKIN2 (11723855_a_at) / RFU LOC730098 (11760151_x_at) / Fold change /veh LOC730098 (11760151_x_at) / RFU OR4N2 (11742367_at) / Fold change /veh OR4N2 (11742367_at) / RFU PRRT2 (11749266_a_at) / Fold change /veh PRRT2 (11749266_a_at) / RFU SNX32 (11753110_a_at) / Fold change /veh SNX32 (11753110_a_at) / RFU CDHR5 (11726645_a_at) / Fold change /veh CDHR5 (11726645_a_at) / RFU RCAN1 (11760418_a_at) / Fold change /veh RCAN1 (11760418_a_at) / RFU FAM167A (11723789_a_at) / Fold change /veh FAM167A (11723789_a_at) / RFU FAM26E (11764081_at) / Fold change /veh FAM26E (11764081_at) / RFU ISYNA1 (11749810_s_at) / Fold change /veh ISYNA1 (11749810_s_at) / RFU ACY1 (11761880_at) / Fold change /veh ACY1 (11761880_at) / RFU 11764098_at / Fold change /veh 11764098_at / RFU SAMD14 (11745864_x_at) / Fold change /veh SAMD14 (11745864_x_at) / RFU NPB (11741838_a_at) / Fold change /veh NPB (11741838_a_at) / RFU TMPRSS6 (11731388_a_at) / Fold change /veh TMPRSS6 (11731388_a_at) / RFU KRTAP10-2 (11738614_at) / Fold change /veh KRTAP10-2 (11738614_at) / RFU ARHGAP8 /// PRR5-ARHGAP8 (11727945_x_at) / Fold change /veh ARHGAP8 /// PRR5-ARHGAP8 (11727945_x_at) / RFU KRTAP5-7 /// NADSYN1 (11734609_at) / Fold change /veh KRTAP5-7 /// NADSYN1 (11734609_at) / RFU RASL12 (11751679_a_at) / Fold change /veh RASL12 (11751679_a_at) / RFU CDKN2B (11736163_a_at) / Fold change /veh CDKN2B (11736163_a_at) / RFU PRF1 (11729649_at) / Fold change /veh PRF1 (11729649_at) / RFU, ZNF638 /// ZNF638-IT1 / Fold change vs veh, ZNF638 /// ZNF638-IT1 / RFU, PANK3 / Fold change vs veh, PANK3 / RFU, SH3YL1 / Fold change vs veh, SH3YL1 / RFU, ZEB2 / Fold change vs veh, ZEB2 / RFU, NRIP1 / Fold change vs veh, NRIP1 / RFU, PTTG1IP / Fold change vs veh, PTTG1IP / RFU, CAPN2 / Fold change vs veh, CAPN2 / RFU, MED14 / Fold change vs veh, MED14 / RFU, SNORA58 / Fold change vs veh, SNORA58 / RFU, C1orf63 / Fold change vs veh, C1orf63 / RFU, LRRFIP1 / Fold change vs veh, LRRFIP1 / RFU, NDUFAF7 / Fold change vs veh, NDUFAF7 / RFU, SLC12A2 / Fold change vs veh, SLC12A2 / RFU, IBTK / Fold change vs veh, IBTK / RFU, ESF1 / Fold change vs veh, ESF1 / Fold change vs veh, TMEM50B / RFU, TAOK1 / Fold change vs veh, TAOK1 / RFU, ACBD3 / Fold change vs veh, ACBD3 / RFU, TMA16 / Fold change vs veh, TMA16 / RFU, RWDD3 / Fold change vs veh, RWDD3 / RFU, BCAT1 / Fold change vs veh, BCAT1 / RFU, EDEM3 / Fold change vs veh, EDEM3 / RFU, TMEM33 / Fold change vs veh, TMEM33 / RFU, WDR75 / Fold change vs veh, WDR75 / RFU, AHCTF1 / Fold change vs veh, AHCTF1 / RFU, TFRC / Fold change vs veh, TFRC / RFU, ZDHHC17 / Fold change vs veh, ZDHHC17 / RFU, NOM1 / Fold change vs veh, NOM1 / RFU, ARL8B / Fold change vs veh, ARL8B / RFU, ZBTB11 / Fold change vs veh, ZBTB11 / RFU, TAMM41 / Fold change vs veh, TAMM41 / RFU, KIAA1704 /// LOC100996395 / Fold change vs veh, KIAA1704 /// LOC100996395 / RFU, ING1 / Fold change vs veh, ING1 / RFU, TRMT61B / Fold change vs veh, TRMT61B / RFU, FUBP3 / Fold change vs veh, FUBP3 / RFU, TP53 / Fold change vs veh, TP53 / RFU, TNKS2 / Fold change vs veh, TNKS2 / RFU, ZFP14 / Fold change vs veh, ZFP14 / RFU, ACTR2 / Fold change vs veh, ACTR2 / RFU, PPP3R1 / Fold change vs veh, PPP3R1 / RFU, PIK3R1 / Fold change vs veh, PIK3R1 / RFU, HNRNPA1 / Fold change vs veh, HNRNPA1 / RFU, RNF170 / Fold change vs veh, RNF170 / RFU, ZNF28 / Fold change vs veh, ZNF28 / RFU, RNGTT / Fold change vs veh, RNGTT / RFU, OGT / Fold change vs veh, OGT / RFU, BRD1 / Fold change vs veh, BRD1 / RFU, MARS / Fold change vs veh, MARS / RFU, ZNF655 / Fold change vs veh, ZNF655 / RFU, FAHD1 / Fold change vs veh, FAHD1 / RFU, BDP1 / Fold change vs veh, BDP1 / RFU, LRRCC1 / Fold change vs veh, LRRCC1 / RFU, ARID1A / Fold change vs veh, ARID1A / RFU, ZNF146 / Fold change vs veh, ZNF146 / RFU, ZNF330 / Fold change vs veh, ZNF330 / RFU, GPN3 / Fold change vs veh, GPN3 / RFU, C9orf123 / Fold change vs veh, C9orf123 / RFU, N4BP2L2 / Fold change vs veh, N4BP2L2 / RFU, ARFIP1 / Fold change vs veh, ARFIP1 / RFU, FAM179B / Fold change vs veh, FAM179B / RFU, BCL10 / Fold change vs veh, BCL10 / RFU, UHRF1BP1L / Fold change vs veh, UHRF1BP1L / RFU, BET1 / Fold change vs veh, BET1 / RFU, CNOT2 / Fold change vs veh, CNOT2 / RFU, ZNF268 / Fold change vs veh, ZNF268 / Fold change vs veh, ZNF507 / RFU, DGCR2 / Fold change vs veh, DGCR2 / RFU, WDSUB1 / Fold change vs veh, WDSUB1 / Fold change vs veh, HSP90B1 /// MIR3652 / RFU, ADSS / Fold change vs veh, ADSS / RFU, GK / Fold change vs veh, GK / RFU, ZNF148 / Fold change vs veh, ZNF148 / RFU, TAF9 / Fold change vs veh, TAF9 / RFU, SLC1A5 / Fold change vs veh, SLC1A5 / RFU, SLMO2 / Fold change vs veh, SLMO2 / RFU, ABCC4 / Fold change vs veh, ABCC4 / RFU, LOC101060439 /// RAP1B / Fold change vs veh, LOC101060439 /// RAP1B / RFU, RFX7 / Fold change vs veh, RFX7 / RFU, GTPBP10 / Fold change vs veh, GTPBP10 / RFU, CNEP1R1 / Fold change vs veh, CNEP1R1 / RFU, BIVM-ERCC5 /// ERCC5 / Fold change vs veh, BIVM-ERCC5 /// ERCC5 / RFU, ILF3 / Fold change vs veh, ILF3 / RFU 11762660_at / Fold change /veh 11762660_at / RFU VCAN (11757783_s_at) / Fold change /veh VCAN (11757783_s_at) / RFU DDX43 (11728927_at) / Fold change /veh DDX43 (11728927_at) / RFU KRT8 (11758188_x_at) / Fold change /veh KRT8 (11758188_x_at) / RFU NKD1 (11759106_at) / Fold change /veh NKD1 (11759106_at) / RFU SRD5A1 (11742802_a_at) / Fold change /veh SRD5A1 (11742802_a_at) / RFU TPSAB1 /// TPSB2 (11721975_s_at) / Fold change /veh TPSAB1 /// TPSB2 (11721975_s_at) / RFU GSTM3 (11746129_a_at) / Fold change /veh GSTM3 (11746129_a_at) / RFU IL23R (11737362_x_at) / Fold change /veh IL23R (11737362_x_at) / RFU TMEM51 (11727254_a_at) / Fold change /veh TMEM51 (11727254_a_at) / RFU PIWIL2 (11732686_x_at) / Fold change /veh PIWIL2 (11732686_x_at) / RFU ORM1 (11744905_x_at) / Fold change /veh ORM1 (11744905_x_at) / RFU CCDC152 (11743942_at) / Fold change /veh CCDC152 (11743942_at) / RFU ECM1 (11717891_a_at) / Fold change /veh ECM1 (11717891_a_at) / RFU IL23R (11748794_a_at) / Fold change /veh IL23R (11748794_a_at) / RFU TNFAIP8L3 (11732012_x_at) / Fold change /veh TNFAIP8L3 (11732012_x_at) / RFU MBOAT4 (11741988_at) / Fold change /veh MBOAT4 (11741988_at) / RFU 11764193_at / Fold change /veh 11764193_at / RFU TMEM53 (11763286_at) / Fold change /veh TMEM53 (11763286_at) / RFU MAGEB2 (11727129_at) / Fold change /veh MAGEB2 (11727129_at) / RFU TMEM200A (11744735_a_at) / Fold change /veh TMEM200A (11744735_a_at) / RFU CCDC152 (11751479_a_at) / Fold change /veh CCDC152 (11751479_a_at) / RFU FAM211A (11726209_a_at) / Fold change /veh FAM211A (11726209_a_at) / RFU RGS16 (11746705_a_at) / Fold change /veh RGS16 (11746705_a_at) / RFU VCAN (11755009_s_at) / Fold change /veh VCAN (11755009_s_at) / RFU RHOB (11743442_s_at) / Fold change /veh RHOB (11743442_s_at) / RFU RGS16 (11720943_a_at) / Fold change /veh RGS16 (11720943_a_at) / RFU RGS16 (11720944_at) / Fold change /veh RGS16 (11720944_at) / RFU, VPS4B / Fold change vs veh, VPS4B / RFU, CREB1 / Fold change vs veh, CREB1 / RFU, DNAJC13 / Fold change vs veh, DNAJC13 / RFU, GNAQ / Fold change vs veh, GNAQ / RFU, CDK5R1 / Fold change vs veh, CDK5R1 / RFU, ZRANB3 / Fold change vs veh, ZRANB3 / RFU, CUL4A / Fold change vs veh, CUL4A / RFU, CCNY / Fold change vs veh, CCNY / RFU, UFL1 / Fold change vs veh, UFL1 / RFU, COG3 / Fold change vs veh, COG3 / RFU, DIAPH2 / Fold change vs veh, DIAPH2 / RFU, SKA2 / Fold change vs veh, SKA2 / RFU, AFF3 / Fold change vs veh, AFF3 / RFU, LMF1 / Fold change vs veh, LMF1 / RFU, IPO11 / Fold change vs veh, IPO11 / RFU, DFFB / Fold change vs veh, DFFB / RFU, FOXP1 / Fold change vs veh, FOXP1 / RFU, CARD8 / Fold change vs veh, CARD8 / RFU, STRN3 / Fold change vs veh, STRN3 / RFU, ADK / Fold change vs veh, ADK / RFU, RASSF2 / Fold change vs veh, RASSF2 / RFU, WIPF1 / Fold change vs veh, WIPF1 / RFU, LARP1B / Fold change vs veh, LARP1B / RFU, RASA1 / Fold change vs veh, RASA1 / RFU, RB1 / Fold change vs veh, RB1 / RFU, PPFIA1 / Fold change vs veh, PPFIA1 / RFU, MAT2A / Fold change vs veh, MAT2A / RFU, CCT5 / Fold change vs veh, CCT5 / RFU, WDR92 / Fold change vs veh, WDR92 / RFU, CUX1 / Fold change vs veh, CUX1 / RFU, TTC7A / Fold change vs veh, TTC7A / RFU, TMEM135 / Fold change vs veh, TMEM135 / RFU, DEPTOR / Fold change vs veh, DEPTOR / RFU, CPM / Fold change vs veh, CPM / RFU, DNAJB6 / Fold change vs veh, DNAJB6 / RFU, CACNA2D3 / Fold change vs veh, CACNA2D3 / RFU, DTX4 / Fold change vs veh, DTX4 / RFU, TFCP2 / Fold change vs veh, TFCP2 / RFU, GMCL1 /// GMCL1P1 / Fold change vs veh, GMCL1 /// GMCL1P1 / RFU, AEBP2 / Fold change vs veh, AEBP2 / RFU, SNHG1 /// SNORD22 /// SNORD25 /// SNORD26 /// SNORD27 /// SNORD28 /// SNORD29 /// SNORD31 / Fold change vs veh, SNHG1 /// SNORD22 /// SNORD25 /// SNORD26 /// SNORD27 /// SNORD28 /// SNORD29 /// SNORD31 / Fold change (Aza/veh), C12orf56 (ProbeSet 11735607_a_at) / Fold change (ACY-1035/veh), C12orf56 (ProbeSet 11735607_a_at) / Fold change (Aza/veh), FGFR1OP (ProbeSet 11751329_s_at) / Fold change (ACY-1035/veh), FGFR1OP (ProbeSet 11751329_s_at) / Fold change (Aza/veh), VPS36 (ProbeSet 11739960_a_at) / Fold change (ACY-1035/veh), VPS36 (ProbeSet 11739960_a_at) / RFU SYPL1 (11715823_x_at) / Fold change /veh SYPL1 (11715823_x_at) / RFU IGFBP7 (11715501_s_at) / Fold change /veh IGFBP7 (11715501_s_at) / RFU REEP3 (11722064_at) / Fold change /veh REEP3 (11722064_at) / RFU IGLL1 (11728026_x_at) / Fold change /veh IGLL1 (11728026_x_at): dose or concentration left out as unconfirmed. Conditions: ProbeSet 11741070_a_at; LIST B.

In the case of `Nc1ccc(-c2cccs2)cc1NC(=O)c1ccc2c(c1)cc(C1CC1)n2CCN1CCOCC1` [ACY-1035], the “Fold change vs veh, ZNF146” value was found to be 0.99.

Values taken from PMC5218480 (PLoS ONE, 2017).
